Source: US12129509B2, “Apparatus, systems, and methods for determining the susceptibility of infectious agents to anti-infectives” (priority 2018, dated 2024)
In brackets after ≈: the same amount, converted by molar mass.

Legend:
[1] = system: E. coli of an unknown strain; assay: pH growth curves of E. coli with Levofloxacin in diagnostic device 102 (FIG. 6); assay type: cell-based; conditions: Escherichia coli, E. coli diluted in Mueller Hinton broth, wells with 1, 2 and 4 μg/mL, read-out: minimum inhibitory concentration (MIC)
Text: FIG. 6 illustrates pH growth curves of E. coli in the presence of various concentrations of the antibiotic Levofloxacin. The growth curves were generated using a computing device 158 coupled to a parameter analyzer 156 coupled to the diagnostic device 102. Similar types of growth curves can also be generated using the computing device 158 coupled to the parameter analyzer 156 coupled to the diagnostic device 202. An inoculum solution 110 comprising E. coli of an unknown strain (diluted in Mueller Hinton (MH) broth) was introduced to the sample receiving space 112 of the diagnostic device 102. The inoculum solution 110 was allowed to fill the plurality wells 120 of the diagnostic device 102 including the growth control wells 134 and a number of active electrode wells 136. A water immiscible liquid 152 was then introduced into the sample receiving space 112 to seal the wells 120 and the entire diagnostic device 102 was incubated at an elevated temperature. The computing device 158 generated the growth curves based on a change in the pH of the inoculum solution 110 within a growth control well 134 and three active electrode wells 136. The growth control well 134 comprised a pH electrode 130 within the well and was devoid of the antibiotic. […]

[2] = system: E. coli of an unknown strain; assay: pH and ORP growth curves of E. coli with Ciprofloxacin in diagnostic device 102 (FIGS. 7A and 7B); assay type: cell-based
Text: FIGS. 7A and 7B illustrate pH growth curves and ORP growth curves of E. coli in the presence of various concentrations of the antibiotic Ciprofloxacin, respectively. The growth curves were generated using a computing device 158 coupled to a parameter analyzer 156 coupled to the diagnostic device 102. Similar types of growth curves can also be generated using the computing device 158 coupled to the parameter analyzer 156 coupled to the diagnostic device 202.
An inoculum solution 110 comprising E. coli of an unknown strain (e.g., a positive blood culture (PBC) diluted to 5×10^5 colony-forming units (CFU)/mL of E. coli in Mueller Hinton (MH) broth) was introduced to the sample receiving space 112 of the diagnostic device 102. The inoculum solution 110 was allowed to fill the plurality wells 120 of the diagnostic device 102 including the growth control wells 134 and a number of active electrode wells 136. A water immiscible liquid 152 was then introduced into the sample receiving space 112 to seal the wells 120 and the entire diagnostic device 102 was incubated at an elevated temperature.
The computing device 158 generated the growth curves based on changes in the solution characteristics (e.g., changes in pH of the pH electrode wells 126 and changes in ORP of the ORP electrode wells 128) of the inoculum solution 110 within the growth control wells 134 and the various active electrode wells 136. The growth control wells 134 comprised at least one pH electrode well 126 and at least one ORP electrode well 128 devoid of the antibiotic. The active electrode wells 136 comprised dried Ciprofloxacin at concentrations of 2 μg/mL, 4 μg/mL, 8 μg/mL, 16 μg/mL, and 32 μg/mL.
This curve pattern or shape can be attributed to cellular activity undertaken by the active E. coli within the growth control wells 134. FIGS. 7A and 7B also illustrate that the three growth curves generated from measurements of the inoculum solution 110 within the active electrode wells 136 comprising 2 μg/mL and 4 μg/mL of Ciprofloxacin mimicked and followed the growth pattern of the inoculum solution 110 within the growth control wells 134.

Row | MIC [1] [µg/mL] | Compound | susceptibility of the strain at the concentration ([2]; Ciprofloxacin 2 μg/mL and 4 μg/mL, curves followed growth control) | susceptibility of the strain at the concentration ([2]; Ciprofloxacin 8 μg/mL, delayed change in pH and ORP) | growth of E. coli in active electrode wells ([2]; Ciprofloxacin 16 μg/mL and 32 μg/mL, curves substantially flat lines) | susceptibility of the strain (overall) ([2]; based on MIC from pH and ORP growth curves)
1 | 1 (≈ 2.77 µM) | C[C@H]1COc2c(N3CCN(C)CC3)c(F)cc3c(=O)c(C(=O)O)cn1c23 [Levofloxacin] |  |  |  | 
2 |  | O=C(O)c1cn(C2CC2)c2cc(N3CCNCC3)c(F)cc2c1=O [Ciprofloxacin] | resistant or not susceptible | intermediate susceptibility | no noticeable growth | generally resistant
